For orientation: IC50 means the midpoint of a concentration-inhibition curve.

This test has as its target RET G810R (Homo sapiens (Human), UniProt P07949, G810R). In words: HTRF KinEASE-TK kinase activity test, RET G810R. To be noted: for inhibitory activity against RET G810R relative to that of selpercatinib (LOXO-292): fold versus selpercatinib (LOXO-292). Background: Time-resolved FRET reads energy transfer from a long-lived donor to a nearby acceptor.
Where [1] appears, read: read-out: RET G810R IC50, HTRF kinase assay.

Where two headings read alike, the source gives them in different places.

RET G810R, sequence (P07949 29-1114 G810R): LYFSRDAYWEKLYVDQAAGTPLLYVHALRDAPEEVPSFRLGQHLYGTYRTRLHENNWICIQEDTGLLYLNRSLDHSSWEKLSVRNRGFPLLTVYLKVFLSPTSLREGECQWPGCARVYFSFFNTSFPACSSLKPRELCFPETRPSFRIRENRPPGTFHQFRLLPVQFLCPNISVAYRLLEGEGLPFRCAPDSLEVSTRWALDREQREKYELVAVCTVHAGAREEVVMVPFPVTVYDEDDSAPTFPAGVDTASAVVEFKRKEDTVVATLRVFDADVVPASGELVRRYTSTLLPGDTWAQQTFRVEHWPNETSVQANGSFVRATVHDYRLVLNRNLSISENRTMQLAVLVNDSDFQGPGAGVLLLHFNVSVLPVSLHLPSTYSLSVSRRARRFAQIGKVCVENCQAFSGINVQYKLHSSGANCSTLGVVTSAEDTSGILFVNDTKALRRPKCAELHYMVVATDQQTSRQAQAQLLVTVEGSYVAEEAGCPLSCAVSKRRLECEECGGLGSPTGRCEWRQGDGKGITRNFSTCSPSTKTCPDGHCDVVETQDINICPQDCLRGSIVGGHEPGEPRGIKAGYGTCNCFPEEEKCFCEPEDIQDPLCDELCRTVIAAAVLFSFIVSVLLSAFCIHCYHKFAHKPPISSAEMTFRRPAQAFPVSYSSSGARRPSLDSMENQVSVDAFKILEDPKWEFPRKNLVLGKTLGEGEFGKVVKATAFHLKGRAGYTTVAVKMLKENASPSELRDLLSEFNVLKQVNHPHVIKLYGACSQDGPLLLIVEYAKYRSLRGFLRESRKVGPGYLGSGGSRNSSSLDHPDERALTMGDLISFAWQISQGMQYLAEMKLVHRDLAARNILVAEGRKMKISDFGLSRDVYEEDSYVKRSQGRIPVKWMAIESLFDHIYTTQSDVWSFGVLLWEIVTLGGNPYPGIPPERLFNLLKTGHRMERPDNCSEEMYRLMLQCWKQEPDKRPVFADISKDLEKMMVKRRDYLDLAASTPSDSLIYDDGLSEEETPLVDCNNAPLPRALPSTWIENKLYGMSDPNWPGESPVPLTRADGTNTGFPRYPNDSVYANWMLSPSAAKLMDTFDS

On to `CCOc1cc(-c2ccc(N3CCC(CO)(NC(=O)c4cc(F)ccc4F)CC3)nc2)c2c3cn[nH]c3nn2c1` [Compound 291, N-(1-(5-(6-ethoxy-1H-pyrazolo[3′,4′:3,4]pyrazolo[1,5-α]pyridin-4-yl)pyridin-2-yl)-4-(hydroxymethyl)piperidin-4-yl)-2,5-difluorobenzamide], for which the “inhibitory activity against RET G810R relative to that of selpercatinib (LOXO-292)” value is listed as at least 10 times. Also, under setting [1], the 50% inhibitory concentration (IC50) was determined as 1.6 nM.
With `CCOc1cc(-c2ccc(N3CC4CCC(C3)N4Cc3ccc(OC)nc3)nc2)c2c3cn[nH]c3nn2c1` [Compound 156, 6-ethoxy-4-(6-((1R,5S)-8-((6-methoxypyridin-3-yl)methyl)-3,8-diazabicyclo[3.2.1]octan-3-yl)pyridin-3-yl)-1H-pyrazolo[3′,4′:3,4]pyrazolo[1,5-α]pyrazole], the IC50 under setting [1] was found to be 11.4 nM.
Same read-out and setting: the result for `CCOc1cc(-c2ccc(N3CCCC4(CCN(Cc5ccc(OC)nc5)CC4)C3)nc2)c2c3cn[nH]c3nn2c1` [Compound 219, 6-ethoxy-4-(6-(9-((6-methoxypyridin-3-yl)methylene)-2,9-diazaspiro[5.5]undecan-2-yl)pyridin-3-yl)-1H-pyrazolo[3′,4′:3,4]pyrazolo[1,5-α]pyridine] reads 66.4 nM; that for `C=CC(=O)Oc1cc(-c2ccc(N3CC4CC(C3)N4Cc3ccc(OC)nc3)nc2)c2c3cn[nH]c3nn2c1` [Compound 242, 4-(6-(6-((6-methoxypyridin-3-yl)methyl)-3,6-diazabicyclo[3.1.1]heptan-3-yl)pyridin-3-yl)-1H-py razolo[3′,4′:3,4]pyrazolo[1,5-α]pyridin-6-yl acrylate], 4.7 nM; that for `C#CCOc1cc(-c2ccc(N3CC4CC(C3)N4Cc3ccc(OC)nc3)nc2)c2c3cn[nH]c3nn2c1` [Compound 227, 4-(6-(6-((6-methoxypyridin-3-yl)methylene)-3,6-diazabicyclo[3.1.1]heptan-3-yl)pyridin-3-yl)-6-(prop-2-yn-1-yloxy)-1H-pyrazolo[3′,4′:3,4]pyrazolo[1,5-α]pyridine], 4.01 nM.
Still for that read-out and setting: the result for `CCOc1cc(-c2ccc(N3CC4(CCCN(C(=O)c5c(F)cccc5Cl)C4)C3)nc2)c2c3cn[nH]c3nn2c1` [Compound 193, N-(2-(5-(6-ethoxy-1H-pyrazolo[3′,4′:3,4]pyrazolo[1,5-α]pyridin-4-yl)pyridin-2-yl)-2,6-diazaspiro [3.5]nonan-6-yl)-2-chloro-6-fluorobenzamide] reads 33.7 nM; that for `CCOc1cc(-c2ccc(N3CC[C@H](NC(=O)c4c(F)cccc4F)[C@@H](O)C3)nc2)c2c3cn[nH]c3nn2c1` [Compound 294, N-((3S,4S)-1-(5-(6-ethoxy-1H-pyrazolo[3′,4′:3,4]pyrazolo[1,5-α]pyridin-4-yl)pyridin-2-yl)-3-hydroxypiperidin-4-yl)-2,6-difluorobenzamide], 4.1 nM.
In the case of `CCOc1cc(-c2cnc(N3CC[C@H](NC(=O)c4cc(F)ccc4Cl)[C@@H](O)C3)cn2)c2c3cn[nH]c3nn2c1` [Compound 91], the “inhibitory activity against RET G810R relative to that of selpercatinib (LOXO-292)” value is recorded as at least 10 times. Moreover, the IC50 under setting [1] turned out to be 2.2 nM.
As to `CCOc1cc(-c2cnc(N3CCC(C)(NC(=O)c4c(F)ccc(F)c4F)CC3)cn2)c2c3cn[nH]c3nn2c1` [Compound 57, N-(1-(5-(6-ethoxy-1H-pyrazolo[3′,4′:3,4]pyrazolo[1,5-α]pyridin-4-yl)pyrazin-2-yl)-4-methylpiperidin-4-yl)-2,3,6-trifluorobenzamide], the IC50 under setting [1] came to 6.9 nM.
Consider `CCOc1cc(-c2ccc(N3CCC(C)(S(=O)(=O)CC(C)C)CC3)nc2)c2c3cn[nH]c3nn2c1` [Compound 33, 6-ethoxy-4-(6-(4-(isobutylsulfonyl)-4-methylpiperidin-1-yl)pyridin-3-yl)-1H-pyrazolo[3′,4′:3,4]p yrazolo[1,5-α]pyridine], for which the “inhibitory activity against RET G810R relative to that of selpercatinib (LOXO-292)” value was at least 10 times. Further, the half-inhibitory concentration (IC50) under setting [1] is 2.5 nM.
`CCOc1cc(-c2ccc(N3CC4(CCN(C(=O)c5c(F)cccc5Cl)C4)C3)nc2)c2c3cn[nH]c3nn2c1` [Compound 189]: the IC50 under setting [1] amounted to 15.3 nM.
Turning to `COc1ccc(CN2C3CC2CN(c2ccc(-c4cc(P(C)(C)=O)cn5nc6[nH]ncc6c45)cn2)C3)cn1` [Compound 237, (4-(6-(6-((6-methoxypyridin-3-yl)methyl)-3,6-diazabicyclo[3.1.1]heptan-3-yl)pyridin-3-yl)-1H-pyrazolo[3′,4′:3,4]pyrazolo[1,5-α]pyridin-6-yl)dimethylphosphine oxide], the 50% inhibitory concentration (IC50) under setting [1] was determined as 112 nM.
On the same count and under the same terms, the same measure for `CCOc1cc(-c2ccc(N3C4CCC3CN(C(=O)c3c(F)cccc3Cl)C4)nc2)c2c3cn[nH]c3nn2c1` [Compound 157, (2-chloro-6-fluoro)((1R,5S)-8-(5-(6-ethoxy-1H-pyrazolo[3′,4′:3,4]pyrazolo[1,5-α]pyridin-4-yl)pyridin-2-yl)-3,8-diazabicyclo[3.2.1]octan-3-yl)benzamide]: 8.6 nM.
Consider `COC(=O)COc1cc(-c2ccc(N3CC4CC(C3)N4Cc3ccc(OC)nc3)nc2)c2c3cn[nH]c3nn2c1` [Compound 228, Methyl 2-((4-(6-(6-((6-methoxypyridin-3-yl)methylene)-3,6-diazabicyclo[3.1.1]heptan-3-yl)pyridin-3-yl)-1H-pyrazolo[3′,4′:3,4]pyrazolo[1,5-α]pyridin-6-yl)oxy)acetate], for which, under setting [1], the IC50 turned out to be 5.7 nM.
`CCOc1cc(-c2ccc(N3CCC4(CC3)CCN4C(=O)c3c(F)cccc3Cl)nc2)c2c3cn[nH]c3nn2c1` [Compound 201, N-(7-(5-(6-ethoxy-1H-pyrazolo[3′,4′:3,4]pyrazolo[1,5-α]pyridin-4-yl)pyridin-2-yl)-1,7-diazaspiro [3.5]nonan-1-yl)-2-chloro-6-fluorobenzamide]: the half-inhibitory concentration (IC50) under setting [1] stood at 4.1 nM.
Regarding `CCOc1cc(-c2ccc(N3CCC(Oc4ccccn4)CC3)nc2)c2c3cn[nH]c3nn2c1` [Compound 103, 6-ethoxy-4-(6-(4-(pyridin-2-yloxy)piperidin-1-yl)pyridin-3-yl)-1H-pyrazolo[3′,4′:3,4]pyrazolo[1,5-α]pyridine], under setting [1], the IC50 was determined as 11.1 nM.
`CCOc1cc(-c2ccc(N3CCC(C)(NC(=O)c4cc(F)ccc4C)CC3)nc2)c2c3cn[nH]c3nn2c1` [Compound 1, N-(1-(5-(6-ethoxy-1H-pyrazolo[3′,4′:3,4]pyrazolo[1,5-α]pyridin-4-yl)pyridin-2-yl)-4-methylpiperidin-4-yl)-5-fluoro-2-methylbenzamide]: the half-maximal inhibitory concentration (IC50) under setting [1] came to 6.5 nM.
Take `CCOc1cc(-c2ccc(N3CC[C@H](NC(=O)c4cc(F)ccc4Cl)[C@@H](O)C3)nc2)c2c3cn[nH]c3nn2c1` [Compound 43]: the “inhibitory activity against RET G810R relative to that of selpercatinib (LOXO-292)” value is on record as at least 10 times. The concentration for half-maximal inhibition (IC50) under setting [1] came to 1.9 nM.
The matching figures for `O=C(N[C@H]1CCN(c2ccc(-c3cc(OCCF)cn4nc5[nH]ncc5c34)cn2)C[C@H]1O)c1c(F)cccc1F` [Compound 267, N-((3R,4S)-1-(5-(6-(2-fluoroethoxy)-1H-pyrazolo[3′,4′:3,4]pyrazolo[1,5-α]pyridin-4-yl)pyridin-2-yl)-3-hydroxypiperidin-4-yl)-2,6-difluorobenzamide]: at least 10 times and 3 nM.
Consider `CCOc1cc(-c2ccc(N3CCN(Cc4ccc(OC)nc4)C(CN(C)C)C3)nc2)c2c3cn[nH]c3nn2c1` (stereo not drawn) [Compound 245, 1-(4-(5-(6-ethoxy-1H-pyrazolo[3′,4′:3,4]pyrazolo[1,5-α]pyridin-4-yl)pyridin-2-yl)-1-((6-methoxypyridin-3-yl)methylene)piperazin-2-yl)-N,N-dimethylmethanamine], for which, under setting [1], the 50% inhibitory concentration (IC50) came to 20.8 nM.
The same measure, in the same setting: the same measure for `CCOc1cc(-c2ccc(N3C[C@@H]4[C@H](C3)[C@@H]4NCc3ccc(OC)nc3)nc2)c2c3cn[nH]c3nn2c1` [Compound 173]: 12.5 nM.
`CCOc1cc(-c2ccc(N3CC[C@H](NC(=O)C(C)C(C)C)[C@@H](O)C3)nc2)c2c3cn[nH]c3nn2c1` (stereo partly shown) [Compound 89]: the “inhibitory activity against RET G810R relative to that of selpercatinib (LOXO-292)” value is recorded as at least 10 times. In addition, the IC50 under setting [1] amounted to 2 nM.
Consider `CCOc1cc(-c2ccc(N3CCN(Cc4ccc(OC)nc4)C(CO)C3)nc2)c2c3cn[nH]c3nn2c1` (stereo not drawn) [Compound 249, (4-(5-(6-ethoxy-1H-pyrazolo[3′,4′:3,4]pyrazolo[1,5-α]pyridin-4-yl)pyridin-2-yl)-1-((6-methoxypyridin-3-yl)methylene)piperazin-2-yl)methanol], for which, under setting [1], the half-inhibitory concentration (IC50) was 13.5 nM.
`CCOc1cc(-c2ccc(N3CC4CC(C3)N4Cc3ccc(OC)nc3)nc2)c2c3cc[nH]c3nn2c1` [Compound 297, 6-ethoxy-4-(6-(6-((6-methoxypyridin-3-yl)methyl)-3,6-diazabicyclo[3.1.1]heptan-3-yl)pyridin-3-yl)-1H-pyrrolo[2′,3′:3,4]pyrazolo[1,5-α]pyridine]: half-maximal inhibition (IC50) was put at 9.6 nM.
On to `COc1cc(-c2ccc(N3CC4CC(C3)N4Cc3ccc(OC)nc3)nc2)c2c3cn[nH]c3nn2c1` [Compound 235], for which the “inhibitory activity against RET G810R relative to that of selpercatinib (LOXO-292)” value is given as at least 10 times. Further, the 50% inhibitory concentration (IC50) under setting [1] was determined as 2.2 nM.
The matching figures for `CCOc1cc(-c2ccc(N3CC[C@H](NC(=O)C4(C(F)(F)F)CCC4)[C@H](O)C3)nc2)c2c3cn[nH]c3nn2c1` [Compound 281, N-((3R,4S)-1-(5-(6-ethoxy-1H-pyrazolo[3′,4′:3,4]pyrazolo[1,5-α]pyridin-4-yl)pyridin-2-yl)-3-hydroxypiperidin-4-yl)-1-(trifluoromethyl)cyclobutane-1-carboxamide]: at least 10 times and 1.5 nM.
In turn, `CCOc1cc(-c2cnc(N3CCC(C)(NC(=O)c4ncccc4Cl)CC3)cn2)c2c3cn[nH]c3nn2c1` [Compound 59, 3-chloro-N-(1-(5-(6-ethoxy-1H-pyrazolo[3′,4′:3,4]pyrazolo[1,5-α]pyridin-4-yl)pyrazin-2-yl)-4-methylpiperidin-4-yl)-2-picolinamide] yielded a 50% inhibitory concentration (IC50) of 4.6 nM.
As to `CCOc1cc(-c2ccc(N3CCC(O)(CNS(=O)(=O)c4ccccc4)CC3)nc2)c2c3cn[nH]c3nn2c1` [Compound 102, N-((1-(5-(6-ethoxy-1H-pyrazolo[3′,4′:3,4]pyrazolo[1,5-α]pyridin-4-yl)pyridin-2-yl)-4-hydroxypiperidin-4-yl)methylene)benzenesulfonamide], the “inhibitory activity against RET G810R relative to that of selpercatinib (LOXO-292)” value is at least 10 times. In addition, the concentration for half-maximal inhibition (IC50) under setting [1] was 3.6 nM.

For the origin of these results see patent US20240174674A1, “NITROGEN-CONTAINING POLYCYCLIC FUSED RING COMPOUND, PHARMACEUTICAL COMPOSITION THEREOF, PREPARATION METHOD THEREFOR, AND USE THEREOF” (APPLIED PHARMACEUTICAL SCIENCE, INC., priority 2021, published 2024).
